Some test systems named below: 786-0 renal; HCC-2998 colon; HT29 colon; MDA-MB-435; NCI-H23 lung; OVCAR-4 ovarian; OVCAR-5 ovarian; SK-MEL-5 melanoma; SK-OV-3 ovarian; UO-31 renal.
Common to all, as to assay: DTP human tumour cell line panel, 48 h

Where “and” joins values, the source holds several entries; their conditions need not be identical. Identical values can stand only once.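 Test compounds were applied to cells in 96-well plates for 48 hours at 5 doses. GI50 = concentration required for 50% inhibition of growth. Definition used: TGI = concentration required for complete inhibition of growth.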

As usually defined, the GI50 is the concentration at which growth is held to half of that of the control. Usually TGI stands for the concentration giving total growth inhibition. The low end stands for more potent growth arrest, the high end for less potent growth arrest.

As for `CC1(C)N=C(N)N=C(N)N1c1ccc(OCC(=O)N2CCOCC2)c(Cl)c1`, the GI50 is 20.2 µM in the test on 786-0 renal; 9.78 µM with HCC-2998 colon; 0.66 µM in the test on HT29 colon; 565 nM in the test on MDA-MB-435; 1.5 µM in the test on NCI-H23 lung; above 100 µM with OVCAR-4 ovarian. The GI50 was 84.4 µM with OVCAR-5 ovarian, 1360 nM in the test on SK-MEL-5 melanoma, 69.8 µM in the test with SK-OV-3 ovarian and above 100 µM in the test with UO-31 renal. For the same molecule, the concentration for total growth inhibition (TGI) in the test with 786-0 renal, in the test with HCC-2998 colon, in the test on HT29 colon, in the test on MDA-MB-435, with NCI-H23 lung and with OVCAR-4 ovarian was above 100 µM each time. Also, the TGI with OVCAR-5 ovarian, in the test with SK-MEL-5 melanoma, in the test with SK-OV-3 ovarian and in the test with UO-31 renal was above 100 µM in each case.

For `CS(=O)(=O)Nc1cccc(-c2ccc3c(NC(=O)C4CC4)n[nH]c3c2)c1`, the GI50 is 12.2 µM with 786-0 renal; 4.08 µM in the test with HCC-2998 colon; 3.88 µM in the test with HT29 colon; 165 nM in the test on MDA-MB-435; 10.2 µM in the test with NCI-H23 lung; 2.68 µM with OVCAR-4 ovarian. Besides, the GI50 in the test on OVCAR-5 ovarian was 12.7 µM; in the test on SK-MEL-5 melanoma, 641 nM; in the test on SK-OV-3 ovarian, 3.92 µM; with UO-31 renal it was 24.8 µM. The TGI with 786-0 renal was above 25 µM; in the test with HCC-2998 colon, above 25 µM; with HT29 colon, above 25 µM; in the test with MDA-MB-435 it was 0.944 µM; in the test with NCI-H23 lung, above 25 µM; in the test on OVCAR-4 ovarian it was above 25 µM. Further, the TGI in the test on OVCAR-5 ovarian was above 25 µM; in the test on SK-MEL-5 melanoma, above 13 µM; in the test on SK-OV-3 ovarian, 15.7 µM; in the test with UO-31 renal, above 25 µM.

As to `COc1cc(C2CC(c3ccc(Nc4ccnc5cc(Cl)ccc45)cc3)=NN2C=O)cc(OC)c1OC` (configuration not stated), the GI50 with 786-0 renal is 2.31 µM; in the test with HCC-2998 colon, 5.52 µM; with HT29 colon it was 2.83 µM; in the test on MDA-MB-435 it was 2100 nM; in the test with NCI-H23 lung, 20.4 µM; in the test with OVCAR-4 ovarian, 3.19 µM. Also, the GI50 with OVCAR-5 ovarian was 69.2 µM; in the test on SK-MEL-5 melanoma, 1980 nM; in the test on SK-OV-3 ovarian, 3.36 µM; in the test with UO-31 renal it was 4.96 µM. For the same molecule, the TGI in the test with 786-0 renal is 4.8 µM; with HCC-2998 colon, above 100 µM; in the test on HT29 colon, 7.17 µM; with MDA-MB-435 it was 5.4 µM; with NCI-H23 lung, above 100 µM; in the test on OVCAR-4 ovarian, 13.3 µM. The TGI is above 100 µM with OVCAR-5 ovarian, 6.28 µM in the test with SK-MEL-5 melanoma, 10.9 µM with SK-OV-3 ovarian and 21.3 µM in the test with UO-31 renal.

Regarding `O=C1c2cccc3cccc(c23)C(=O)N1CCCCN1CCN(CCCCOc2ccc(-c3nc4ccc(N5CCOCC5)cc4[nH]3)cc2)CC1`, the GI50 in the test with 786-0 renal was above 100 µM; with HCC-2998 colon, above 100 µM; in the test on HT29 colon, above 100 µM; in the test on MDA-MB-435 it was above 100000 nM; in the test on NCI-H23 lung it was above 100 µM; in the test on OVCAR-4 ovarian, above 100 µM. In addition, the GI50 is above 100 µM in the test on OVCAR-5 ovarian, 9100 nM with SK-MEL-5 melanoma, above 100 µM in the test on SK-OV-3 ovarian and above 100 µM in the test with UO-31 renal. In addition, the TGI with 786-0 renal, in the test with HCC-2998 colon, in the test with HT29 colon, with MDA-MB-435, in the test with NCI-H23 lung and in the test with OVCAR-4 ovarian was above 100 µM throughout. Also, the TGI in the test on OVCAR-5 ovarian, in the test on SK-MEL-5 melanoma, in the test on SK-OV-3 ovarian and in the test on UO-31 renal was above 100 µM in each case.

Regarding `Cc1cc(NCCCCNc2ccnc3cc(Cl)ccc23)nc(Nc2ccc(C(=O)N3CCCC3)cc2)n1`, the GI50 in the test with 786-0 renal was 1.57 µM; in the test on HCC-2998 colon, 2.99 µM; in the test on HT29 colon, 2.37 µM; in the test with MDA-MB-435, 1790 nM; in the test with NCI-H23 lung, 3.7 µM; with OVCAR-4 ovarian, 2.32 µM. Further, the GI50 with OVCAR-5 ovarian is 4.29 µM; in the test with SK-MEL-5 melanoma, 1700 nM; in the test on SK-OV-3 ovarian, 3.49 µM; in the test on UO-31 renal it was 1.73 µM. In addition, the TGI with 786-0 renal came to 3.02 µM; in the test on HCC-2998 colon, 8.36 µM; with HT29 colon, 7.8 µM; in the test on MDA-MB-435, 3.35 µM; with NCI-H23 lung it was 15.8 µM; in the test on OVCAR-4 ovarian it was 11 µM. For the same molecule, the TGI stood at 18 µM in the test on OVCAR-5 ovarian, 3.13 µM in the test on SK-MEL-5 melanoma, 9.11 µM in the test with SK-OV-3 ovarian and 4.16 µM with UO-31 renal.

On to `C=C(C)[C@@H]1CC[C@]2(C(=O)O)CC[C@]3(C)[C@H](CC[C@@H]4[C@@]5(C)C[C@@H](CC#Cc6ccc(Br)cc6)C(=O)C(C)(C)[C@@H]5CC[C@]43C)[C@@H]12`, for which the GI50 is 5.27 µM in the test on 786-0 renal; 36 µM in the test on HCC-2998 colon; 4.83 µM in the test on HT29 colon; 4940 nM in the test with MDA-MB-435; 3.83 µM with NCI-H23 lung; 4.95 µM with OVCAR-4 ovarian. The GI50 with OVCAR-5 ovarian was 94.3 µM; in the test on SK-MEL-5 melanoma, 34200 nM; with SK-OV-3 ovarian, 20.2 µM; with UO-31 renal it was above 100 µM. Also, the TGI is 22.2 µM with 786-0 renal; above 100 µM with HCC-2998 colon; above 100 µM in the test with HT29 colon; above 100 µM in the test on MDA-MB-435; 23.9 µM with NCI-H23 lung; above 100 µM in the test on OVCAR-4 ovarian. Also, the TGI in the test with OVCAR-5 ovarian, with SK-MEL-5 melanoma, with SK-OV-3 ovarian and in the test with UO-31 renal was above 100 µM each time.

Regarding `C/C1=C\CC[C@@]2(C)O[C@@H]2C[C@@H]2[C@H](C/C(C)=C/CC1)OC(=O)C21CCN=N1` (some centres not stated), the GI50 in the test with 786-0 renal is above 100 µM; with HT29 colon it was above 100 µM; in the test on MDA-MB-435, above 100000 nM; in the test with NCI-H23 lung, above 100 µM; in the test on OVCAR-5 ovarian, above 100 µM; with SK-MEL-5 melanoma, above 100000 nM. The GI50 in the test on UO-31 renal is above 100 µM. The total growth inhibition concentration (TGI) is above 100 µM with 786-0 renal; above 75 µM in the test with HCC-2998 colon; above 100 µM with HT29 colon; above 100 µM in the test on MDA-MB-435; above 100 µM in the test on NCI-H23 lung; 75 µM in the test with OVCAR-4 ovarian. In addition, the TGI in the test on OVCAR-5 ovarian is above 100 µM; in the test with SK-MEL-5 melanoma, 75 µM and > 100 µM; in the test on SK-OV-3 ovarian, above 75 µM; in the test with UO-31 renal, above 100 µM.

Values taken from PubChem BioAssay (NCI).
